The record followed here is US20170304386A1, “METHOD FOR INHIBITING SURVIVAL, TUMORIGENESIS AND METASTASIS OF CANCER CELLS AND/OR CANCER STEM CELLS” (priority 2014, published 2017).

Entries after “also recorded” stand apart in the source; their conditions may differ. Residues, ends and D or L forms follow the SMILES beside them. *: point of attachment. Cbz = O=C(OCc1ccccc1)*

Common to all, as to type: cell-based, human
In assay [1] the test system is laminin 5. Kind of assay: Western blot of laminin 5 protein with cycloheximide with or without MG132. As to conditions: TICs with Col17a1 knockdown; 50 μg/ml cycloheximide; 10 μM MG132; 6, 12, 24, 36 hours. The procedure:
FIGS. 5a-5k show the Col XVII-mediated suspension survival ability depends on laminin 5 and FAK activation. FIGS. 5a and 5b show the Bulk cancer cells (Bulk) and spheroid culture-enriched TICs (SPH) were cultured in spheroid condition for 10 h, followed by FIG. 5a (western blot assay), and FIG. 5b (immunofluorescence) followed by examination with a confocal microscope. […] FIGS. 5e-5f show the spheroid cultures of cells overexpressed with control shRNAs (CTR) or different Col17a1 shRNAs, si(1) and si(2) were assayed for mRNA and protein levels (FIG. 5e), and immunostaining (CCS)(FIG. 5f) followed by examination with a confocal microscope. FIG. 5g (top), western blot analysis for spheroid culture-enriched TICs expressing control shRNAs (CTR) or Col17a1 shRNAs, si(1) or si(2), treated with 50 μg/ml cycloheximide in the presence or absence of 10 μM MG132 for 6, 12, 24, and 36 hours. FIG. 5g (bottom), graphical representation of the relative band intensities of laminin 5 protein. […]
Cells were lysed and protein was extracted using M-PER (Pierce, Rockford, Ill.) plus protease inhibitor cocktail (Pierce), and the protein concentrations were determined by the BCA assay (Pierce). […] The membrane was then hybridized with primary antibodies followed by corresponding secondary antibodies, and then detected using a chemiluminescence assay (Millipore, Billerica, Mass.). […]

The test system of assay [2] is S727 phosphorylation of STAT3. Kind of assay: Western blot analysis of STAT3 S727 phosphorylation in CCS cells. The procedure: FIGS. 7a-7m show the PP2A regulates STAT3 activation at S727 and mediates suspension survival ability in TICs. […] The results are expressed as mean±SD of three independent experiments. Asterisks indicate significant differences determined by student's t-test. Bar=20 μm.
Cells were lysed and protein was extracted using M-PER (Pierce, Rockford, Ill.) plus protease inhibitor cocktail (Pierce), and the protein concentrations were determined by the BCA assay (Pierce). Aliquots of protein lysates were separated on SDS-10% polyacrylamide gels and transferred onto poly-vinylidenedifluoride (PVDF) membrane, which was blocked with 5% milk (Bio-Rad, Richmond, Calif.) in TBST. The membrane was then hybridized with primary antibodies followed by corresponding secondary antibodies, and then detected using a chemiluminescence assay (Millipore, Billerica, Mass.). Membranes were exposed to X-ray film to visualize the bands (Amersham Pharmacia Biotech, Piscataway, N.J.). Antibodies against pSTAT3 (S727) (1:1000), pSTAT3 (Y705) (1:1000), STAT3 (1:2000), PP2A C subunit (1:2000), pAkt (S473) (1:1000), β-tubulin (1:2000), Flag (1:2000), pAkt (T308) (1:1000), Akt (1:2000), ERK (1:2000), pP38 (T180 and Y182) (1:1000), P38 (1:2000), pJNK (1:1000), and pmTOR (S2448) (1:1000) were purchased from Cell Signaling Technologies. Antibodies against pPP2A (Y307) (1:2000), Oct4 (1:500), Nanog (1:500), Histone H1 (1:1000), and Sox2 (1:500) were purchased from Santa Cruz Biotechnology Inc. Antibodies against pFAK (Y397) (1:1000) were purchased from GeneTex (San Antonio, Tex.). Antibody against Col17a1 was purchased from Abcam. Antibody against Laminin y2 (1:1000) was purchased from Chemicon (Temecula, Calif.). Antibody against cleaved-caspase 3 (1:1000) was purchased from Epitomics (Burlingame, Calif.). Antibody against pERK (1:1000) was purchased from Biosource (Camerillo, Calif.).
(Immunoblotting shows a protein as a band on a membrane.)

The subject of assay [3] is spheres formed by HT29 spheroid culture. Kind of assay: Live/Dead analysis of spheres pre-treated with enzymes, then suspension culture. To be noted: pre-treatment of spheres with enzyme, then suspension culture 24 hours.
Assay [4] has as its system A549 cells. As to the kind of experiment: Wound healing assay. To be noted: PMA 100 nM, 1,10-phenanthroline 20 μM. On the procedure:
(§1) Knockdown of ADAMS or ADAM10 inhibited shedding of Collagen XVII and reduced laminin-5 expression in A549 cells cultured in spheroid culture.
An in vitro model of the ability of A549 and CL1-1 lung cancer cells to migrate in a monolayer culture was used to measure wound healing ability. Lung cancer cells were seeded into 6-well plates and incubated overnight. The cells were disrupted by scraping them with a […] pipette tip. […] The percent of wounded area filled was calculated as follows: [(mean wound width-mean remaining width)/mean wound width]×100(%).

The subject of assay [5] is EMT markers. As to the kind of experiment: Western blot of Snail and EMT markers in A549 spheroid culture. As to conditions: PMA 100 nM, 1,10-phenanthroline 20 μM. The procedure: as §1
(§2) The lung cancer cell lines A549 and CL1-1 were obtained from the American Type Culture Collection. Cells were grown in Dulbecco's Modified Eagle Medium (DMEM) (Gibco, Grand Island, N.Y.) containing 10 units/ml penicillin, 10 μg/ml streptomycin, 2 mM glutamine, and 10% fetal bovine serum (FBS; Gibco), in a 37° C. humidified atmosphere with 5% CO2. For enrichment of cancer stem-like cells (CSCs) in spheroid culture, lung cancer cells were suspended in tumor sphere medium consisting of serum-free DMEM/F12 (Gibco), N2 supplement (Gibco), human recombinant epidermal growth factor (EGF) (20 ng/ml, PeproTech, Rocky Hill, N.J.), and basic fibroblastic growth factor (bFGF) (10 ng/ml, PeproTech). Cell colonies >100 μm in diameter and >50% in area showing 3-dimensional structure and blurred cell margins were defined as spheres. Sphere numbers were counted at day 12 of culture. Cells were harvested and protein lysates were collected for further experiments. Treatment reagents included FAK inhibitor (20 μM) (Calbiochem, San Diego, Calif.; Merk, Schwalbach, Germany), LY294002 (10 μM) (Calbiochem), 1,10-phenanthroline (20 μM) (Sigma-Aldrich; St. Louis, Mo.), PMA (100 nM) (Sigma-Aldrich) and Cyclohexamide (50 μg/ml) (Calbiochem).
(§3) Cell extracts were prepared with M-PER (Pierce, Rockford, Ill.) plus protease inhibitor cocktail (Halt™; Pierce) and protein concentrations were determined using the bicinchoninic acid (BCA) assay (Pierce). Aliquots of protein lysates were separated on SDS-10% polyacrylamide gels and transferred to PVDF membrane filters, followed by blocking with 5% blotting grade milk (Bio-Rad, Hercules, Calif.) in TBST (20 mM Tris-HCl [pH 7.6], 137 mM NaCl, 1% Tween 20). Membranes were then probed with the indicated primary antibodies, reacted with the corresponding secondary antibodies, and results detected using a chemiluminescence assay (Millipore, Billerica, Mass.). Membranes were exposed to X-ray film to visualize the bands (Amersham Pharmacia Biotech, Piscataway, N.J.).

The test system of assay [6] is Col XVII. Kind of assay: Immunoblot of Col XVII shedding in A549 spheroid culture. To be noted: A549 spheroid culture 12 days; PMA 100 nM, 1,10-phenanthroline 20 μM. The procedure: as §1
The lung cancer cell lines A549 and CL1-1 were obtained from the American Type Culture Collection. Cells were grown in Dulbecco's Modified Eagle Medium (DMEM) (Gibco, Grand Island, N.Y.) containing 10 units/ml penicillin, 10 μg/ml streptomycin, 2 mM glutamine, and 10% fetal bovine serum (FBS; Gibco), in a 37° C. humidified atmosphere with 5% CO2. For enrichment of cancer stem-like cells (CSCs) in spheroid culture, lung cancer cells were suspended in tumor sphere medium consisting of serum-free DMEM/F12 (Gibco), N2 supplement (Gibco), human recombinant epidermal growth factor (EGF) (20 ng/ml, PeproTech, Rocky Hill, N.J.), and basic fibroblastic growth factor (bFGF) (10 ng/ml, PeproTech). […] Sphere numbers were counted at day 12 of culture. […]
Cell extracts were prepared with M-PER (Pierce, Rockford, Ill.) plus protease inhibitor cocktail (Halt™; Pierce) and protein concentrations were determined using the bicinchoninic acid (BCA) assay (Pierce). […] Membranes were then probed with the indicated primary antibodies, reacted with the corresponding secondary antibodies, and results detected using a chemiluminescence assay (Millipore, Billerica, Mass.). […]

The subject of assay [7] is laminin-5. As to the kind of experiment: Western blot of laminin-5 level and degradation in A549 spheroid culture. As to conditions: for level of laminin 5: A549 spheroid culture 12 days, PMA 100 nM, 1,10-phenanthroline 20 μM; for laminin 5 protein half-life / degradation: A549 suspension cells, spheroid medium containing cycloheximide 50 μg/ml. On the procedure:
as §1, §2, §3

For assay [8], the system named is A549 cells. Kind of assay: Invasion assay (Matrigel Invasion Chambers). As to conditions: PMA 100 nM, 1,10-phenanthroline 20 μM. The procedure:
as §1
Cell invasion assays were performed using 24-well BD Biocoat Matrigel Invasion Chambers (Becton, Dickinson and Company, San Jose, Calif.) according to the manufacturer's instructions. In brief, cells were seeded into upper inserts (2.5×10^4 cells/insert) in DMEM supplemented with 0.1% bovine serum albumin (BSA). Outer wells were filled with DMEM containing 10% FBS as the chemoattractant. After 24 hours of incubation, the membranes with invaded cells were stained with Giemsa (Sigma), washed and mounted on slides. The entire membrane with invading cells was counted by light microscopy. Data are expressed as the number of invaded cells/well. Each assay was performed in triplicate and repeated at least twice.

Assay [9] has as its system A549 cells. As to the kind of experiment: Migration assay (Boyden chambers). To be noted: PMA 100 nM, 1,10-phenanthroline 20 μM. The procedure: as §1
Cell migration assay was performed using Boyden chambers. At the end of the assay, cells in the upper chamber and on the upper filter surface were removed, whereas cells on the lower filter surface were fixed with ethanol and stained with Giemsa (Sigma-Aldrich). The number of migrating cells was determined by counting cells in 10 random fields/filter at 200× magnification. Data were calculated as a percentage of migrated cells in the absence of chemoattractant or adherent culture, which was considered as 100%. All experiments were performed in triplicate.

Setting [10] is: CCS bulk cancer cells, 0, 0.1, 0.5, 1 nM OA for 1 hour or 0, 5, 10, 15 nM CA for 30 min.

As for `CC(C)C[C@@H](C=O)NC(=O)[C@H](CC(C)C)NC(=O)[C@H](CC(C)C)NC(=O)OCc1ccccc1` [MG132] (Cbz-Leu-Leu-Leu-aldehyde), the “laminin 5 protein level” value in assay [1] is listed as “restored”.

Consider `CCCCCCCCCCCCCC=CC(O)C(CO)NC(=O)CCCCC` (stereo not shown) [ceramide C6], for which the “S727 phosphorylation of STAT3” value in assay [2] (CCS spheroid culture-enriched TICs, 50 nM ceramide C6 for 24 hours) was “reduced S727 phosphorylation of STAT3”.

Regarding chymotrypsin, the “cell death in suspension culture (Live/Dead analysis)” value in assay [3] is listed as “cause cell death”.

In the case of `CCCCCCCCCCCCCC(=O)O[C@@H]1[C@@H](C)[C@@]2(O)[C@@H](C=C(CO)C[C@]3(O)C(=O)C(C)=C[C@@H]23)[C@@H]2C(C)(C)[C@]12OC(C)=O` [PMA], in [4], the wound closure entry was “enhanced”. In [5], the EMT markers entry is recorded as “activated”, the “expression of Snail” value is recorded as “enhanced”, the “expression of epithelial marker E-cadherin” value was “decreased” and the “expression of mesenchymal markers” value was “increased”. Further, the “shedding of COL XVII” value in assay [6] was “increased; also recorded: stimulated”. For the same molecule, in assay [7], the “level of laminin 5” value is “positively; also recorded: enhanced” and the “laminin 5 protein half-life / degradation” value is on record as “longer half-life; also recorded: decreased degradation”. In addition, in [8], the invasion result was “enhanced”. Moreover, the cell migration result in assay [9] is given as “enhanced”.

Regarding `c1cnc2c(c1)ccc1cccnc12` [1,10-phenanthroline], the wound closure result in assay [4] is recorded as “reduced”. Further, in assay [5], the EMT markers entry is “reduced”, the “expression of Snail” value is reported as “reduced”, the “expression of epithelial marker E-cadherin” value is listed as “increased” and the “expression of mesenchymal markers” value was “decreased”. For the same molecule, the “shedding of COL XVII” value in assay [6] is “decreased”. Also, in assay [7], the “level of laminin 5” value is “negatively” and the “laminin 5 protein half-life / degradation” value is “degraded faster”. Also, in assay [8], the invasion entry is reported as “reduced”. Besides, the cell migration entry in [9] is “reduced”.

On to `COC[C@@H]([C@H](O)[C@H](O)C(=O)NCC[C@H](C)c1nc(/C=C/C[C@@H]2O[C@]3(C[C@@H](O)[C@@H]2C)O[C@H]([C@H](C[C@H](O)[C@H](C)[C@H](O)[C@H](C)/C=C(C)/C(C)=C/C=C/C(C)=C\C#N)OC)[C@H](OP(=O)(O)O)C3(C)C)co1)N(C)C` [calyculin A], for which the “S727 phosphorylation of STAT3” value in assay [2] (setting [10]) is on record as “increased S727 phosphorylation of STAT3 in a dose-dependent manner”.

Consider `C=C1[C@@H](O)[C@@H]2O[C@]3(CC[C@H](/C=C/[C@@H](C)[C@@H]4CC(C)=C[C@@]5(O[C@H](C[C@@](C)(O)C(=O)O)CC[C@H]5O)O4)O3)CC[C@H]2O[C@@H]1[C@@H](O)C[C@H](C)[C@H]1O[C@@]2(CCCCO2)CC[C@H]1C` [okadaic acid], for which the “S727 phosphorylation of STAT3” value in [2] (setting [10]) is recorded as “increased S727 phosphorylation of STAT3 in a dose-dependent manner”.
